Data on two compounds can be found in paper PMC9287337 (Scientific Reports, 2022).

The structures appear in SMILES notation. Like-named read-outs stand apart in the source and are kept apart here.

Holding throughout (type): cell-based, mouse
For one series, the system named is C2C12 cells. Kind of series: Live cell count (acridine orange/propidium iodide). Particulars: 24 h; for Average increase in number of cells compared to control: average over 0.01–10 µM. As for the experimental part: For the concentrations tested, SY-LB-35 increased the number of cells by an average of approximately 40% (Fig. 4A) and SY-LB-57 enhanced cell numbers to an average increase of 70% compared to the control (Fig. 4B). […] Moreover, both novel compounds induce a substantial proliferative effect in C2C12 cells.
C2C12 mouse myoblast cells (ATCC®, Manassas, VA, USA) were maintained in complete growth media (DMEM/10% FBS/1X Penicillin/Streptomycin/Glutamine solution (PSG)) at 37 °C in 5% CO2. DMEM media (Dulbecco’s Modified Eagle’s Medium with high glucose and L-glutamine and without sodium pyruvate) was from Caisson Labs (Smithfield, UT, USA). FBS was from Atlanta Biologicals (Flowery Branch, GA, USA). To determine the cell concentration, 18 µL cell suspension was mixed with 2 µL Acridine orange/Propidium iodide stain (Logos Biosystems, Annandale, VA, USA). Next, the cell concentration and percent viability were determined from 10 µL stained cells using the Luna-FL™ Dual Fluorescence Cell Counter from Logos Biosystems. For cell counts following treatment with SY-LB-35 or SY-LB-57, C2C12 cells (500 µL) were seeded into 24-well plates at 1 × 10^5 cells/mL, grown to 80% confluency, serum-starved for 16–18 h using Serum-Starvation Medium (SS medium: DMEM/1X Penicillin/Streptomycin solution (PS)) and treated for 24 h with the novel compounds. The treated cells were then collected by trypsinization, pelleted at 2000 rpm for 3 min at RT, resuspended and counted.

The subject of series [1] is p-Smad nuclear translocation. Kind of series: Immunofluorescent labeling of p-Smad nuclear translocation. The note with it: 1 µM, 30 min.
Method: Serum-starved C2C12 cells grown on poly-D-lysine (PDL)-coated coverslips were stimulated with BMP2 (50 ng/mL), SY-LB-35 (1 µM) or SY-LB-57 (1 µM) for 30 min.
In a 24-well plate, 12 mm glass coverslips were coated for 1 h at RT with 500 µL PDL (0.1 mg/mL/ 0.1 M Boric acid), washed 4 times with cell culture-grade distilled water and sterilized under UV light for 30 min. C2C12 cells (500 µL) were seeded onto the PDL-coated coverslips at a density of 1 × 10^5 cells/mL, grown to 80% confluency and starved in SS medium for 2 h. Next, the cells were treated with 50 ng/mL BMP2 or 1 µM SY-LB-35 or SY-LB-57 for 15 min (for p-Akt labelling) or 30 min (for p-Smad labelling). Cells were then fixed using ice-cold 4% PFA/PBS for 10 min at RT. Next, the coverslips were washed with ice-cold 1X PBS, transferred to a humidified chamber and incubated (100 µL/coverslip) in Permeabilization solution (0.1% Triton X-100/PBS) for 15 min, then Blocking Buffer (10% heat inactivated goat serum/ 0.3% Triton X-100/PBS) for 30 min. Anti-p-Smad antibodies in Antibody Dilution Buffer (1% BSA/0.1% Tween 20/PBS) were added for 1 h and the coverslips were washed 4 times with 1X PBS. The Cy3-conjugated goat anti-rabbit IgG secondary antibodies (Jackson Immuno Research Labs, West Grove, PA, USA) in Antibody Dilution Buffer were added for 1 h followed by 4 washes with 1X PBS and once with dH2O. […]
For the next series, the system named is p-p38. Kind of series: Western blot of p-p38. The note with it: 0.01–10 µM, 15 min. The protocol: Whole cell lysates were prepared from the treated cultures for Western blot analysis.
(§1) C2C12 cells (3 mL) were seeded into 35 mm dishes at 7.5 × 10^4 cells/mL in complete growth medium, incubated to reach 80% confluence and serum-starved for 16–18 h. […] Thereafter, the cultures were washed with ice-cold 1X TBS for 2 min. Lysis Buffer (Cell Signaling Technology, Danvers, MA, USA) supplemented with 1 mM PMSF (phenylmethylsulphonyl fluoride) was added to the cultures and whole cell lysates were prepared.
Laemmli sample buffer (4X) was added to the whole cell lysates (20 µg) to a final concentration of 1X and heated at 100 °C for 5 min. The samples were immediately cooled on ice for 5 min and centrifuged at 9500 rpm for 2 min at RT. The samples and the Precision Plus Protein Standard (5 µL; Bio-Rad, Hercules, CA, USA) were loaded on 12% SDS polyacrylamide gels. […] Finally, the blots were developed using SuperSignal ™ West Femto HRP Substrate solutions (Thermo Scientific, Rockford, IL, USA) and analysed using the Omega Lum™ G Imaging System (San Francisco, CA, USA). Quantification of chemiluminescent signals was carried out using ImageJ (Image Processing and Analysis in Java 1.8.0_112).
A general note: A western blot detects proteins with antibodies after separation by electrophoresis.

Series [2] has as its system type I BMP receptor-dependent p-Smad. Description: Western blot of p-Smad in presence or absence of Dorsomorphin. Particulars: 1 µM, 30 min; for p-Smad level, DM(+): Dorsomorphin 10 µM pretreatment 1 h; for p-Smad level, DM(−): without Dorsomorphin. The protocol:
Total whole cell lysates were prepared and used for Western blot analysis of Smad phosphorylation using anti-p-Smad antibodies.
as §1
Laemmli sample buffer (4X) was added to the whole cell lysates (20 µg) to a final concentration of 1X and heated at 100 °C for 5 min. The samples were immediately cooled on ice for 5 min and centrifuged at 9500 rpm for 2 min at RT. The samples and the Precision Plus Protein Standard (5 µL; Bio-Rad, Hercules, CA, USA) were loaded on 12% SDS polyacrylamide gels. Protein was separated using the Bio-Rad Mini Protean II Gel Electrophoresis System at 135 V. Meanwhile, 0.2 µm nitrocellulose membranes were pre-incubated in cold 1X Transfer Buffer (10 mM Tris/2.5 mM glycine/20% methanol) for at least 30 min. Next, the separated proteins were transferred at 100 V onto the pre-equilibrated nitrocellulose membranes for 1 h in Transfer Buffer, followed by blocking in 5% BSA/0.1% Tween 20/1X TBS for 30 min. The membranes were incubated overnight at 4 °C with the desired primary rabbit monoclonal antibody (p-Smad1/5(S463/465)/9(S465/467), Smad1 (D5907) XP®, p-Akt (Ser473) (D9E) XP®, or Akt (pan) (C67E7), p-SAPK/JNK (Thr183/Tyr185), SAPK/JNK, β-actin (Cell Signaling Technologies, Danvers, MA, USA)) or rabbit polyclonal antibody (phospho-PI3 Kinase p85 (Tyr458)/p55 (Tyr199) antibody (Cell Signaling Technologies, Danvers, MA, USA), p-p38 MAPK, p38 MAPK, p-ERK1, ERK1/2) (Abclonal, Woburn, MA, USA)) in Antibody Dilution Buffer (1% BSA/0.1% Tween 20/1X TBS) and then washed with 1X TBST (0.1% Tween 20/1X TBS) three times for 15 min. HRP-conjugated Goat Anti-Rabbit IgG secondary antibody (Santa Cruz Biotechnology, Inc., Dallas, TX, USA) in Antibody Dilution Buffer was added to the membranes for 1 h at RT followed by three 15-min washes with 1X TBST. Finally, the blots were developed using SuperSignal ™ West Femto HRP Substrate solutions (Thermo Scientific, Rockford, IL, USA) and analysed using the Omega Lum™ G Imaging System (San Francisco, CA, USA). Quantification of chemiluminescent signals was carried out using ImageJ (Image Processing and Analysis in Java 1.8.0_112).

A short description of series [3]: Cell viability assay in presence or absence of Dorsomorphin. The note with it: mouse, serum-starved C2C12 cells. As for the experimental part:
To resolve whether the SY-LB-35 or SY-LB-57 compound requires type I BMP receptor activity for the induction of cell viability in C2C12 cells, cell viability assays were carried out in the presence or absence of 10 µM DM.
C2C12 cells (100 µL) were seeded in a 96-well plate at 5 × 10^5 cells/mL and incubated overnight in complete growth media to achieve 80% confluency followed by serum-starvation for 16–18 h. […] For BMP receptor inhibition, cell viability assays were carried out in presence or absence of Dorsomorphin (DM; 10 µM; Sigma Aldrich, St. Louis, MO, USA), a non-selective inhibitor of type I BMP receptor activity.
Next, reagents from the RealTime-Glo™ MT Cell Viability Assay Kit (Promega, Madison, WI, USA) were diluted in SS medium and used according to manufacturer’s protocol. Cellular luminescence was measured using the FilterMax F5 Multi-mode Microplate Reader (Molecular Devices, San Jose, CA, USA). Data from three independent experiments with individual experiments carried out in triplicate was determined and reported as a percentage of control.

[4] abbreviates: Dorsomorphin 10 µM, read-out: Cell viability, DM(+).
Setting [5] is: without Dorsomorphin, read-out: Cell viability, DM(−).

A word on the viability: it is a read-out of living cells in per cent, often relative to untreated cells. On to `Oc1ccc2[nH]c(-c3nc4ccccc4[nH]3)cc2c1` [SY-LB-35], for which the Cell number in the series with C2C12 cells (0.01 µM) is given as 6.8 × 10^5 cells. Also, in the series with C2C12 cells (0.1 µM), the Cell number is listed as 6.6 × 10^5 cells. Moreover, in the series with C2C12 cells (1 µM), the Cell number is on record as 6.8 × 10^5 cells. Besides, the Cell number in the series on C2C12 cells (10 µM) is reported as 6.4 × 10^5 cells. For the same compound, the “Average increase in number of cells compared to control” value with C2C12 cells is “approximately 40%”. The p-Smad nuclear translocation result in series [1] was “induced the translocation of p-Smad into the nucleus”. Besides, the p-p38 level result in the series on p-p38 was “stimulated increases”. For the same compound, in series [2], the “p-Smad level, DM(+)” value stood at 112% and the “p-Smad level, DM(−)” value worked out at 315%. In series [3] (setting [4]), the viability at 24 h, 0.01 µM amounted to 98%; the viability at 24 h, 0.1 µM came out at 103%; the viability at 24 h, 1 µM was found to be 102%; the viability at 24 h, 10 µM was 82%. For the same compound, in series [3] (setting [4]), the viability at 24 h, 100 µM was found to be 30%. Besides, in series [3] (setting [5]), the viability at 24 h, 0.01 µM is 266%; the viability at 24 h, 0.1 µM was 269%; the viability at 24 h, 1 µM was determined as 218%; the viability at 24 h, 10 µM worked out at 147%. In addition, in series [3] (setting [5]), the viability at 24 h, 100 µM is 69%.

For the compound `COc1ccc2[nH]c(-c3nc4ccccc4[nH]3)cc2c1` [SY-LB-57], the Cell number with C2C12 cells (0.01 µM) is given as 7.4 × 10^5 cells. For the same compound, the Cell number with C2C12 cells (0.1 µM) is given as 6.5 × 10^5 cells. For the same compound, in the series on C2C12 cells (1 µM), the Cell number is 7.2 × 10^5 cells. The Cell number with C2C12 cells (10 µM) was 6.0 × 10^5 cells. For the same compound, the “Average increase in number of cells compared to control” value with C2C12 cells was determined as 70%. Also, the p-Smad nuclear translocation result in series [1] is given as “induced the translocation of p-Smad into the nucleus”. In the series with p-p38, the p-p38 level result is recorded as “stimulated increases”. Further, in series [2], the “p-Smad level, DM(+)” value is listed as 111% and the “p-Smad level, DM(−)” value stood at 172%. Further, in series [3] (setting [4]), the viability at 24 h, 0.01 µM is 120%; the viability at 24 h, 0.1 µM was 107%; the viability at 24 h, 1 µM came to 111%; the viability at 24 h, 10 µM amounted to 111%. Moreover, in series [3] (setting [5]), the viability at 24 h, 0.01 µM was found to be 384%; the viability at 24 h, 0.1 µM was 380%; the viability at 24 h, 1 µM was 321%; the viability at 24 h, 10 µM worked out at 289%.
